In patent US7371742B2, “Porphyrin derivatives for photodynamic therapy” (Institut Curie, priority 2001, dated 2008):
Read-outs that look alike come from different tables or passages of the source.

Key:
[1] = test system: RBY-79 (indifferently named Y-79) cells; test: RBY-79 (Y79) cell cytotoxicity / photocytotoxicity; settings: for Photocytotoxicity RBY-79, concentration giving 50%: 50% effect, with light; for cytotoxic for Y79 (in words): without light, remark of the inventors
Excerpt: Columns HT29 and Y79 (═RBY79), without light, correspond to the cytotoxic activity.

[2] = test system: L-1210 cells; test: Cytotoxicity L-1210 (no light), cytostatic activity; type: cell-based, human; settings: no light
Excerpt: Column L1210 corresponds to the cytostatic activity.

[3] = test system: human colic adenocarcinoma cell line HT29; test: HT29 cell survival (MTT assay) after 24 h incubation, with or without light irradiation; settings: for Photocytotoxicity HT 29, concentration giving 50%: 50% effect, with light; for cytotoxic for HT29 (in words): without light, remark of the inventors
Experimental: HT29 cells were cultivated in Dulbecco's MEM supplemented with 10% fetal calf serum (FCS). Cells from log-phase culture were seeded in 24-microwell plates (1 mL-5×10^4 cells/well) and kept at 37° C. in a water-jacketed incubator for 2 days under an air/CO2 atmosphere (5% CO2). Tested compounds, in DMSO solution, were added under the minimum volume (5 μL) to reach a concentration ranging from 0.1 to 10 μg/mL. Controls cells received 5 μL of DMSO free of dye. Plates were incubated 24 h, then medium was removed and the cells were washed twice with phosphate buffered saline (PBS) before addition of fresh medium free of drug and irradiation with visible light using a home made “light box” giving a fluence of 3.8 mW/cm^2 on the whole visible spectrum. Irradiation with red light was carried out using the same device fitted with an orange filter (0% T at 520 nm and 80% T at 590 nm) leading to a fluence of 2 mW/cm^2.
Plates were reincubated for 3 days before evaluation of the cell survival using the MTT assay (T. Mosmann, “Rapid calorimetric assay for cellular growth and survival. Application to proliferation assays”. J. Immunol. Methods 65,55-63,1983) using 30 min incubation with 100 μg well of 3-[4,5-dimethylthiazol-2-yl]-2,5-diphenyl tetrazolium bromide (MTT, Sigma). After removal of the medium, formazan crystals were taken up with 100 μL of DMSO and absorbance at 540 ni was measured with a Bio-Rad microplate reader (model 450); survival was expressed as % of untreated controls.

[4] = read-out: Y79 IC50 (μM) With 2J/cm^2, irradiation with filter (0% T at 520 nm, 80% T at 590 nm), 3.5 mW/cm^2, 10 min
[5] = read-out: Y79 IC50 (μM) without light, without light (cytotoxic activity)
[6] = read-out: HT 29 IC50 (μM) with 2J/cm^2, irradiation with filter (0% T at 520 nm, 80% T at 590 nm), 3.5 mW/cm^2, 10 min
[7] = read-out: HT 29 IC50 (μM) without light, without light (cytotoxic activity)

| Molecule | IC50 [1, 4] [µM] | IC50 [1, 5] [µM] | IC50 [3, 6] [µM] | IC50 [3, 7] [µM] | other results |
| --- | --- | --- | --- | --- | --- |
| OC[C@H]1O[C@H](SCCOCCOc2ccc(-c3c4nc(c(-c5ccc(OCCOCCS[C@H]6O[C@H](CO)[C@@H](O)[C@H](O)[C@@H]6O)cc5)c5ccc([nH]5)c(-c5ccc(OCCOCCS[C@H]6O[C@H](CO)[C@@H](O)[C@H](O)[C@@H]6O)cc5)c5nc(c(-c6ccccc6)c6ccc3[nH]6)C=C5)C=C4)cc2)[C@@H](O)[C@@H](O)[C@@H]1O [Compound 68, TPP(p-O-DEG-S-α-Mann)3] | 1 ± 0.5 | 6 ± 2 | 5.8 ± 3 | > 10 | Photocytotoxicity RBY-79, concentration giving 50% [1]: 1 µg/mL; Cytotoxicity L-1210 (no light), % at 10 μg/ml [2]: 0% 10 μg/ml; Photocytotoxicity HT 29, concentration giving 50% [3]: 50% 4 μg/ml |
| TPPF4(p-O-β-GluOH)4 [Compound 63] | > 10 | > 10 | > 10 | > 10 | Photocytotoxicity RBY-79, % at 10 μg/ml white light ([1]; 10 μg/ml, white light): 37% |
| O[C@@H]1[C@@H](O)[C@H](Sc2c(F)c(F)c(-c3c4nc(c(-c5c(F)c(F)c(S[C@@H]6OC[C@@H](O)[C@H](O)[C@H]6O)c(F)c5F)c5ccc([nH]5)c(-c5c(F)c(F)c(S[C@@H]6OC[C@@H](O)[C@H](O)[C@H]6O)c(F)c5F)c5nc(c(-c6c(F)c(F)c(S[C@@H]7OC[C@@H](O)[C@H](O)[C@H]7O)c(F)c6F)c6ccc3[nH]6)C=C5)C=C4)c(F)c2F)OC[C@H]1O [Compound 27, TPP F4(p-S-β-XylOH)4] | 1 | – | 5 | > 10 | Photocytotoxicity RBY-79, concentration giving 50% [1]: 50% 1.6 μg/ml; Y79 IC50 (μM) without light ([1]; without light (cytotoxic activity)): Inactive for μM; Cytotoxicity L-1210 (no light), concentration giving 50% ([2]; 50% effect): 14 µg/mL; Photocytotoxicity HT 29, concentration giving 50% [3]: 7.5 µg/mL |
| OC[C@H]1O[C@@H](Oc2ccc(-c3c4nc(c(-c5ccc(O[C@@H]6O[C@H](CO)[C@@H](O)[C@H](O)[C@H]6O)cc5)c5ccc([nH]5)c(-c5ccc(O[C@@H]6O[C@H](CO)[C@@H](O)[C@H](O)[C@H]6O)cc5)c5nc(c(-c6ccc(O[C@@H]7O[C@H](CO)[C@@H](O)[C@H](O)[C@H]7O)cc6)c6ccc3[nH]6)C=C5)C=C4)cc2)[C@H](O)[C@@H](O)[C@@H]1O [TPP(p-O-β-GluOH)4, reference compound] | 5.2 ± 4 | 7 ± 4 | > 10 | > 10 | – |
| OC[C@H]1O[C@H](SCc2ccc(-c3c4nc(c(-c5ccc(CS[C@H]6O[C@H](CO)[C@@H](O)[C@H](O)[C@@H]6O)cc5)c5ccc([nH]5)c(-c5ccc(CS[C@H]6O[C@H](CO)[C@@H](O)[C@H](O)[C@@H]6O)cc5)c5nc(c(-c6ccc(CS[C@H]7O[C@H](CO)[C@@H](O)[C@H](O)[C@@H]7O)cc6)c6ccc3[nH]6)C=C5)C=C4)cc2)[C@@H](O)[C@@H](O)[C@@H]1O [Compound 66, TPP(p-CH2-S-α-MannOH)4] | 15 | 28 | 10 | 21 | Photocytotoxicity RBY-79, % at 10 μg/ml ([1]; 10 μg/ml): 20%; Cytotoxicity L-1210 (no light), % at 10 μg/ml [2]: 0% 10 μg/ml; Photocytotoxicity HT 29, % at 10 μg/ml ([3]; 10 μg/ml): 40% |
| OC[C@H]1O[C@H](Sc2c(F)c(F)c(-c3c4nc(c(-c5c(F)c(F)c(S[C@H]6O[C@H](CO)[C@@H](O)[C@H](O)[C@@H]6O)c(F)c5F)c5ccc([nH]5)c(-c5c(F)c(F)c(S[C@H]6O[C@H](CO)[C@@H](O)[C@H](O)[C@@H]6O)c(F)c5F)c5nc(c(-c6c(F)c(F)c(S[C@H]7O[C@H](CO)[C@@H](O)[C@H](O)[C@@H]7O)c(F)c6F)c6ccc3[nH]6)C=C5)C=C4)c(F)c2F)[C@@H](O)[C@@H](O)[C@@H]1O [Compound 29, TPP F4(p-S-α-MannOH)4] | 3.3 | > 10 | 2.4 | > 10 | – |
| OC[C@H]1O[C@H](SCCOCCOCCOc2ccc(-c3c4nc(c(-c5ccc(OCCOCCOCCS[C@H]6O[C@H](CO)[C@@H](O)[C@H](O)[C@@H]6O)cc5)c5ccc([nH]5)c(-c5ccc(OCCOCCOCCS[C@H]6O[C@H](CO)[C@@H](O)[C@H](O)[C@@H]6O)cc5)c5nc(c(-c6ccccc6)c6ccc3[nH]6)C=C5)C=C4)cc2)[C@@H](O)[C@@H](O)[C@@H]1O [Compound 74, 5,10,15-tri(para-10-S-α-D-thiomanosyloxy-O-triethylene glycoloxyphenyl)-20-phenylporphyrin] | 0.5 ± 0.3 | 11 ± 5 | 4.8 | 10.5 | – |
| OC[C@H]1O[C@H](Sc2c(F)c(F)c(/C3=c4\cc/c([nH]4)=C(\c4c(F)c(F)c(F)c(F)c4F)C4=NC(C=C4)[C@@H](c4c(F)c(F)c(F)c(F)c4F)c4ccc([nH]4)/C(c4c(F)c(F)c(S[C@H]5O[C@H](CO)[C@@H](O)[C@H](O)[C@@H]5O)c(F)c4F)=C4/C=CC3=N4)c(F)c2F)[C@@H](O)[C@@H](O)C1O (stereo partly shown) [Compound 31] | – | – | – | – | Photocytotoxicity RBY-79, % at 2 μg/ml [1]: 80% 2 μg/ml |
| Oc1ccc(-c2c3nc(c(-c4ccc(O)cc4)c4ccc([nH]4)c(-c4ccc(O)cc4)c4nc(c(-c5ccccc5)c5ccc2[nH]5)C=C4)C=C3)cc1 [TPP(p-OH)3, reference compound] | 1.8 ± 0.1 | > 10 | 1.65 ± 0.07 | > 15 | – |
| Oc1ccc(-c2c3nc(c(-c4ccc(O)cc4)c4ccc([nH]4)c(-c4ccc(O)cc4)c4nc(c(-c5ccc(O)cc5)c5ccc2[nH]5)C=C4)C=C3)cc1 [TPP(p-OH)4, reference compound] | 0.3 | 4.7 ± 2.5 | 0.8 ± 1 | 7.75 ± 3 | cytotoxic for Y79 (in words) [1]: cytotoxic; cytotoxic for HT29 (in words) [3]: cytotoxic |
| Oc1cccc(-c2c3nc(c(-c4cccc(O)c4)c4ccc([nH]4)c(-c4cccc(O)c4)c4nc(c(-c5cccc(O)c5)c5ccc2[nH]5)CC4)C=C3)c1 [m-THPC, reference compound] | – | – | – | – | IC50 ([1]; Homo sapiens, Y79, light or radiation study, 10 min, read-out: Y79 IC50 (μM) With 2J/cm^2): 0.6 ± 0.03 µM; IC50 ([1]; Homo sapiens, Y79, read-out: Y79 IC50 (μM) without light): > 10 µM; cytotoxic for Y79 (in words) [1]: cytotoxic; IC50 ([3]; Homo sapiens, HT-29, light or radiation study, 10 min, read-out: HT 29 IC50 (μM) with 2J/cm^2): 0.8 ± 0.3 µM; IC50 ([3]; Homo sapiens, HT-29, read-out: HT 29 IC50 (μM) without light): > 10 µM; cytotoxic for HT29 (in words) [3]: cytotoxic |
| OC[C@H]1O[C@@H](Oc2ccc(-c3c4nc(c(-c5ccc(O[C@@H]6O[C@H](CO)[C@@H](O)[C@H](O)[C@H]6O)cc5)c5ccc([nH]5)c(-c5ccc(O[C@@H]6O[C@H](CO)[C@@H](O)[C@H](O)[C@H]6O)cc5)c5nc(c(-c6ccccc6)c6ccc3[nH]6)C=C5)C=C4)cc2)[C@H](O)[C@@H](O)[C@@H]1O [TPP(p-O-β-GluOH)3, reference compound] | 0.9 | > 15 | 1.5 ± 0.2 | > 15 | – |
| OC[C@H]1O[C@H](Sc2c(F)c(F)c(-c3c4nc(c(-c5c(F)c(F)c(S[C@H]6O[C@H](CO)[C@@H](O)[C@H](O)[C@@H]6O)c(F)c5F)c5ccc([nH]5)c(-c5c(F)c(F)c(S[C@H]6O[C@H](CO)[C@@H](O)[C@H](O)[C@@H]6O)c(F)c5F)c5nc(c(-c6c(F)c(F)c(F)c(F)c6F)c6ccc3[nH]6)C=C5)C=C4)c(F)c2F)[C@@H](O)[C@@H](O)[C@@H]1O [Compound 33, TPP F4(p-S-α-MannOH)3] | 2.7 | > 10 | 1.7 | > 10 | Photocytotoxicity RBY-79, % at 2 μg/ml [1]: 90% 2 μg/ml |
